Measured values as given in ChEMBL document CHEMBL1909046, “DrugMatrix in vitro pharmacology data”.

Assays:
[1] = target: T1, Leukotriene C4 synthase (Cavia porcellus, UniProt A6XA80); assay type: tissue-based, Lung;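 also: enzyme inhibition assay of leukotriene C4 synthase, using LTA4 as the substrate; in other assays of this panel Not Active means under 50% inhibition at 10 µM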
T1 sequence (A6XA80 whole entry): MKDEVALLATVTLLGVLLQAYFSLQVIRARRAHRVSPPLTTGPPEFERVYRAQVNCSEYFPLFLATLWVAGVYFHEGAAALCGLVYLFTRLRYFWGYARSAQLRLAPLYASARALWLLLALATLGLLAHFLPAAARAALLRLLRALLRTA

[2] = target: Beta-1 adrenergic receptor (Homo sapiens, UniProt P08588); assay: DRUGMATRIX: Adrenergic beta1 radioligand binding (ligand: [125I] Cyanopindolol); assay type: cell membranes, CHO-K1, Membrane; settings: Not Active = under 50% inhibition at 10 µM
[3] = DRUGMATRIX: beta-Lactamase enzyme inhibition (substrate: Nitrocefin); parameters: species or system Bacillus cereus; settings: Not Active = under 50% inhibition at 10 µM
[4] = DRUGMATRIX: Serotonin (5-Hydroxytryptamine) 5-HT3 radioligand binding (ligand: [3H] GR-65630); assay type: cell membranes, Membrane; settings: hek293; Not Active = under 50% inhibition at 10 µM
[5] = target: T2, D(4) dopamine receptor (Homo sapiens, UniProt P21917); assay: DRUGMATRIX: Dopamine D4.2 radioligand binding (ligand: [3H] Spiperone); assay type: cell membranes, CHO-K1, Membrane; settings: Not Active = under 50% inhibition at 10 µM; for Ki: read-out: Ki
T2 sequence (P21917 whole entry): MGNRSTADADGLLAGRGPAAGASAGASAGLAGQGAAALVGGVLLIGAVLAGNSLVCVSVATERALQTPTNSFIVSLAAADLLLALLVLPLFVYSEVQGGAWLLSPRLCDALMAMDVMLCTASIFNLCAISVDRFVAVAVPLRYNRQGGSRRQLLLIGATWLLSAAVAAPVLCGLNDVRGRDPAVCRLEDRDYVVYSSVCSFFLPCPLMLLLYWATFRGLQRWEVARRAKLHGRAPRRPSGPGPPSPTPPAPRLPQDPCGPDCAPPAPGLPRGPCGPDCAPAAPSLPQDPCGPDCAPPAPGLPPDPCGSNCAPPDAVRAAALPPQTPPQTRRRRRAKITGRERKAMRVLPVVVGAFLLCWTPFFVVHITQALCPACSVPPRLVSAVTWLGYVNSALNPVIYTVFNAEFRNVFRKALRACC

[6] = target: Mitogen-activated protein kinase 14 (Homo sapiens, UniProt Q16539); parameters: species or system Escherichia coli;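 also: inhibition of p38alpha enzyme activity in a biochemical kinase assay, with myelin basic protein serving as substrate; in other assays of this panel Not Active means under 50% inhibition at 10 µM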
[7] = DRUGMATRIX: Interleukin IL-1 radioligand binding (ligand: [125I] interleukin 1beta); assay type: cell membranes, Membrane; settings: nih3t3; Not Active = under 50% inhibition at 10 µM

Mitogen-activated protein kinase 14, sequence (Q16539 whole entry): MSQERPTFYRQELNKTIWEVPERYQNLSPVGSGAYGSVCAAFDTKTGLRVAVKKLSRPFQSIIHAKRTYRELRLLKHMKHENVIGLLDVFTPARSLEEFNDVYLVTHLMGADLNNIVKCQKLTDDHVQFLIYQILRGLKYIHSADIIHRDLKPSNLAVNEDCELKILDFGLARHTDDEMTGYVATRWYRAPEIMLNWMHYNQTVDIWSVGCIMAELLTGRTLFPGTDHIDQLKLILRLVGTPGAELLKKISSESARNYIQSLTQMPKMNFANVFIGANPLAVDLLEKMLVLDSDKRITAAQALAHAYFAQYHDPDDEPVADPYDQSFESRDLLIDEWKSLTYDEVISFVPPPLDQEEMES
Beta-1 adrenergic receptor, sequence (P08588 whole entry): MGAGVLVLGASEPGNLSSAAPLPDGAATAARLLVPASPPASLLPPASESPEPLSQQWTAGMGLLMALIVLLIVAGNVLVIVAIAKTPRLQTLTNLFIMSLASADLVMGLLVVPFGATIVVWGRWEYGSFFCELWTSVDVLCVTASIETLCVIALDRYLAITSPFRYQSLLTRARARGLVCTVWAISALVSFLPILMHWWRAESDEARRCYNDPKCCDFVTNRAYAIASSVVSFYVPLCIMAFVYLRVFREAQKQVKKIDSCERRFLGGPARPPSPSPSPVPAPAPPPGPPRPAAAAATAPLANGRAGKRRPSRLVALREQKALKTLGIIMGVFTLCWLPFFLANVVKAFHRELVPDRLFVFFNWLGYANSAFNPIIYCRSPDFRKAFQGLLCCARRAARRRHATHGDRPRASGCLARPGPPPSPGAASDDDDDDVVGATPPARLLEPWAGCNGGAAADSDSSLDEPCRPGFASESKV

Row | SMILES | IC50 [1] | IC50 ([2]; cho-k1) | IC50 [3] | Ki [3] | IC50 [4] | Ki [4] | IC50 ([5]; cho-k1) | IC50 [6] | IC50 [7] | Ki [7] | IC50 ([5]; read-out: IC50) [µM] | Ki [5] [µM] | IC50 ([2]; read-out: IC50) [µM] | Ki ([2]; read-out: Ki) [µM]
1 | CC(C)(C)NC(=O)[C@@H]1C[C@@H]2CCCC[C@@H]2CN1C[C@@H](O)[C@H](Cc1ccccc1)NC(=O)[C@H](CC(N)=O)NC(=O)c1ccc2ccccc2n1 | Not Active | Not Active | Not Active | Not Active | Not Active | Not Active | Not Active | Not Active | Not Active | Not Active |  |  |  | 
2 | CC(=O)[C@@]1(O)CC[C@H]2[C@@H]3C[C@H](C)C4=CC(=O)CC[C@]4(C)[C@H]3CC[C@@]21C | Not Active | Not Active | Not Active | Not Active | Not Active | Not Active | Not Active | Not Active | Not Active | Not Active |  |  |  | 
3 | N[C@@H](Cc1ccc(N(CCCl)CCCl)cc1)C(=O)O | Not Active | Not Active | Not Active | Not Active | Not Active | Not Active | Not Active | Not Active | Not Active | Not Active |  |  |  | 
4 | CCCCc1oc2ccccc2c1C(=O)c1cc(I)c(OCCN(CC)CC)c(I)c1 [AMIODARONE] | Not Active |  |  |  |  |  |  | Not Active |  |  | 17.7 | 6.21 |  | 
5 | OCCN(CCO)c1nc(N2CCCCC2)c2nc(N(CCO)CCO)nc(N3CCCCC3)c2n1 [DIPYRIDAMOLE] | Not Active | Not Active | Not Active | Not Active | Not Active | Not Active | Not Active | Not Active | Not Active | Not Active |  |  |  | 
6 | Cc1oncc1C(=O)Nc1ccc(C(F)(F)F)cc1 [LEFLUNOMIDE] | Not Active | Not Active | Not Active | Not Active | Not Active | Not Active | Not Active | Not Active | Not Active | Not Active |  |  |  | 
7 | c1ccc([C@H]2CN3CCSC3=N2)cc1 [LEVAMISOLE] | Not Active | Not Active | Not Active | Not Active | Not Active | Not Active | Not Active | Not Active | Not Active | Not Active |  |  |  | 
8 | N[C@@H](Cc1ccc(O)c(O)c1)C(=O)O [LEVODOPA] | Not Active | Not Active | Not Active | Not Active | Not Active | Not Active | Not Active | Not Active | Not Active | Not Active |  |  |  | 
9 | N[C@@H](Cc1cc(I)c(Oc2ccc(O)c(I)c2)c(I)c1)C(=O)O [LIOTHYRONINE] | Not Active | Not Active |  |  |  |  | Not Active | Not Active |  |  |  |  |  | 
10 | O=NN(CCCl)C(=O)NC1CCCCC1 [LOMUSTINE] | Not Active | Not Active | Not Active | Not Active | Not Active | Not Active | Not Active | Not Active | Not Active | Not Active |  |  |  | 
11 | CCOC(=O)N1CCC(=C2c3ccc(Cl)cc3CCc3cccnc32)CC1 [LORATADINE] | Not Active | Not Active | Not Active | Not Active | Not Active | Not Active | Not Active | Not Active | Not Active | Not Active |  |  |  | 
12 | Cn1ccnc1S [METHIMAZOLE] | Not Active | Not Active | Not Active | Not Active | Not Active | Not Active | Not Active | Not Active | Not Active | Not Active |  |  |  | 
13 | CC[C@@H](CO)NC(=O)[C@@H]1C=C2c3cccc4[nH]cc(c34)C[C@H]2N(C)C1 [METHYLERGONOVINE] | Not Active |  | Not Active | Not Active |  |  | Not Active | Not Active | Not Active | Not Active |  |  |  | 
14 | COc1nc(C)nc(Cl)c1NC1=NCCN1 [MOXONIDINE] | Not Active | Not Active | Not Active | Not Active | Not Active | Not Active | Not Active | Not Active | Not Active | Not Active |  |  |  | 
15 | COc1c(C)c2c(c(O)c1C/C=C(\C)CCC(=O)O)C(=O)OC2 [MYCOPHENOLIC ACID] | Not Active | Not Active | Not Active | Not Active | Not Active | Not Active | Not Active | Not Active | Not Active | Not Active |  |  |  | 
16 | O=c1ncn2nc(Sc3ccc(F)cc3F)ccc2c1-c1c(Cl)cccc1Cl [NEFLAMAPIMOD] | Not Active | Not Active | Not Active | Not Active | Not Active | Not Active | Not Active |  | Not Active | Not Active |  |  |  | 
17 | CN1CCN(CCCN2c3ccccc3Sc3ccc(Cl)cc32)CC1 [PROCHLORPERAZINE] | Not Active | Not Active |  |  |  |  |  | Not Active |  |  | 2.31 | 0.81 |  | 
18 | CO[C@H]1/C=C/O[C@@]2(C)Oc3c(C)c(O)c4c(O)c(c(/C=N/N5CCN(C)CC5)c(O)c4c3C2=O)NC(=O)/C(C)=C\C=C\[C@H](C)[C@H](O)[C@@H](C)[C@@H](O)[C@@H](C)[C@H](OC(C)=O)[C@@H]1C [RIFAMPIN] | Not Active | Not Active | Not Active | Not Active | Not Active | Not Active | Not Active | Not Active | Not Active | Not Active |  |  |  | 
19 | Nc1nc2ccc(OC(F)(F)F)cc2s1 [RILUZOLE] | Not Active | Not Active | Not Active | Not Active | Not Active | Not Active | Not Active | Not Active | Not Active | Not Active |  |  |  | 
20 | Cc1nc2n(c(=O)c1CCN1CCC(c3noc4cc(F)ccc34)CC1)CCCC2 [RISPERIDONE] | Not Active | Not Active |  |  |  |  | Not Active | Not Active |  |  |  |  |  | 
21 | C=CCC1(C(C)CCC)C(=O)NC(=O)NC1=O (stereo unspecified) [SECOBARBITAL] | Not Active | Not Active | Not Active | Not Active | Not Active | Not Active | Not Active | Not Active | Not Active | Not Active |  |  |  | 
22 | C[C@@H]1CN(c2c(F)c(N)c3c(=O)c(C(=O)O)cn(C4CC4)c3c2F)C[C@H](C)N1 [SPARFLOXACIN] | Not Active | Not Active | Not Active | Not Active | Not Active | Not Active | Not Active | Not Active | Not Active | Not Active |  |  |  | 
23 | Cc1noc(NS(=O)(=O)c2ccc(N)cc2)c1C [SULFISOXAZOLE] | Not Active | Not Active | Not Active | Not Active | Not Active | Not Active | Not Active | Not Active | Not Active | Not Active |  |  |  | 
24 | CSc1ccc(/C=C2/C(C)=C(CC(=O)O)c3cc(F)ccc32)cc1 [SULINDAC SULFIDE] | Not Active | Not Active | Not Active | Not Active | Not Active | Not Active | Not Active | Not Active | Not Active | Not Active |  |  |  | 
25 | Nc1c2c(nc3ccccc13)CCCC2 [TACRINE] | Not Active | Not Active | Not Active | Not Active | Not Active | Not Active | Not Active | Not Active | Not Active | Not Active |  |  |  | 
26 | CC/C(=C(\c1ccccc1)c1ccc(OCCN(C)C)cc1)c1ccccc1 [TAMOXIFEN] | Not Active |  |  |  |  |  |  | Not Active |  |  | 11.2 | 3.91 | 17.3 | 9.98
27 | CC(C)N1CCN(c2ccc(OCC3COC(Cn4cncn4)(c4ccc(Cl)cc4Cl)O3)cc2)CC1 (stereo unspecified) [TERCONAZOLE] | Not Active |  | Not Active | Not Active | Not Active | Not Active | Not Active | Not Active |  |  |  |  |  | 
28 | Nc1nc2nc[nH]c2c(=S)[nH]1 [THIOGUANINE] | Not Active | Not Active | Not Active | Not Active | Not Active | Not Active | Not Active | Not Active | Not Active | Not Active |  |  |  | 
